Reference: ChEMBL document CHEMBL5620341, “CSF1R inhibitors are emerging immunotherapeutic drugs for cancer treatment” (Eur J Med Chem, 2023)
≈ marks a conversion by molar mass, not a printed value.

Experiments:
CT26 = test: Antiproliferative activity against mouse CT26 cells assessed as inhibition of cell growth measured after 6 days by MTT assay; type: functional, cell-based; details: CT26, 144 h
[1] = Cytotoxicity against mouse RAW264.7 cells assessed as reduction in cell viability incubated for 48 hrs by MTT assay; type: toxicity, cell-based
NFS-60 [2] = test: Cytotoxicity against mouse NFS-60 cells assessed as cell growth inhibition incubated for 72 hrs by Cell titer-glo assay; details: NFS-60, 72 h
NFS-60 [3] = test: Growth inhibition of mouse NFS-60 cells incubated for 72 hrs by Cell titer-glo assay; type: functional
[4] = Metabolic stability in mouse liver microsomes assessed as half life; type: ADME, Microsome
HUVEC [5] = test: Antiproliferative activity against FGF stimulated HUVEC cells assessed as reduction in cell viability incubated for 72 hrs by MTT assay; details: Homo sapiens
[6] = target: T1, Tyrosine-protein kinase Mer (Homo sapiens, UniProt Q12866); test: Inhibition of human MERTK by discoverX kinome scan assay
T1 sequence (Q12866 whole entry): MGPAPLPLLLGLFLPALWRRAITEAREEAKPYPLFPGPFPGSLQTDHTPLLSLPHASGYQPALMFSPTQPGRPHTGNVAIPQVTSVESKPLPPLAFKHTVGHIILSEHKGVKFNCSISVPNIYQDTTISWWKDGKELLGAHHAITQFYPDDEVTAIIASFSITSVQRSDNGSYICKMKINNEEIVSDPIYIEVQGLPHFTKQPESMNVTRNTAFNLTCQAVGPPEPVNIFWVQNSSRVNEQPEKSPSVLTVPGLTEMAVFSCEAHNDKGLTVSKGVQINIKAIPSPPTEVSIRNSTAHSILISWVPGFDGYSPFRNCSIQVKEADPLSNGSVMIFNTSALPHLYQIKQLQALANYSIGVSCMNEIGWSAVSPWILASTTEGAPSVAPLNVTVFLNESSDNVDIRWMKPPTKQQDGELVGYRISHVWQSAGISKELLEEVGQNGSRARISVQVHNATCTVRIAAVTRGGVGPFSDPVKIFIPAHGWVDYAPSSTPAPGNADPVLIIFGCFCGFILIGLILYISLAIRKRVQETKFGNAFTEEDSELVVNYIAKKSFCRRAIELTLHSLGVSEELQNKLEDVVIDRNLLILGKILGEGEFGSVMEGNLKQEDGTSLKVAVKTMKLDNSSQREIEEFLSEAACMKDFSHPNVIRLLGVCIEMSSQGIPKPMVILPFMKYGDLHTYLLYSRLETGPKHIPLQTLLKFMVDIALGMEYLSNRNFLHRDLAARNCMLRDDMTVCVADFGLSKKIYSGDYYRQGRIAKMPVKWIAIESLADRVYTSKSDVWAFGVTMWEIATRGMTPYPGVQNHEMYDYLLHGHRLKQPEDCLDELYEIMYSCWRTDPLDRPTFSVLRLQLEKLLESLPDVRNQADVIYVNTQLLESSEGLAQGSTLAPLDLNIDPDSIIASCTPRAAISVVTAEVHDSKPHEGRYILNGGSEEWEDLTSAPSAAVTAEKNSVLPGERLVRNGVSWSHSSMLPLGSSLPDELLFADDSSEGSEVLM

[7] = target: T2, Vascular endothelial growth factor receptor 2 (Homo sapiens, UniProt P35968); test: Inhibition of VEGFR2 (unknown origin)
HUVEC [8] = test: Antiproliferative activity against VEGF stimulated HUVEC cells assessed as reduction in cell viability incubated for 72 hrs by MTT assay; details: Homo sapiens
[9] = target: Vascular endothelial growth factor receptor 1 (Homo sapiens, UniProt P17948); test: Inhibition of VEGFR1 (unknown origin)
[10] = target: T3, Macrophage colony-stimulating factor 1 receptor (Mus musculus, UniProt P09581); test: Inhibition of CSF1R in mouse RAW264.7 cells assessed as reduction in AKT phosphorylation measured after 4 hrs by Western blot analysis; type: cell-based
T3 sequence (P09581 whole entry): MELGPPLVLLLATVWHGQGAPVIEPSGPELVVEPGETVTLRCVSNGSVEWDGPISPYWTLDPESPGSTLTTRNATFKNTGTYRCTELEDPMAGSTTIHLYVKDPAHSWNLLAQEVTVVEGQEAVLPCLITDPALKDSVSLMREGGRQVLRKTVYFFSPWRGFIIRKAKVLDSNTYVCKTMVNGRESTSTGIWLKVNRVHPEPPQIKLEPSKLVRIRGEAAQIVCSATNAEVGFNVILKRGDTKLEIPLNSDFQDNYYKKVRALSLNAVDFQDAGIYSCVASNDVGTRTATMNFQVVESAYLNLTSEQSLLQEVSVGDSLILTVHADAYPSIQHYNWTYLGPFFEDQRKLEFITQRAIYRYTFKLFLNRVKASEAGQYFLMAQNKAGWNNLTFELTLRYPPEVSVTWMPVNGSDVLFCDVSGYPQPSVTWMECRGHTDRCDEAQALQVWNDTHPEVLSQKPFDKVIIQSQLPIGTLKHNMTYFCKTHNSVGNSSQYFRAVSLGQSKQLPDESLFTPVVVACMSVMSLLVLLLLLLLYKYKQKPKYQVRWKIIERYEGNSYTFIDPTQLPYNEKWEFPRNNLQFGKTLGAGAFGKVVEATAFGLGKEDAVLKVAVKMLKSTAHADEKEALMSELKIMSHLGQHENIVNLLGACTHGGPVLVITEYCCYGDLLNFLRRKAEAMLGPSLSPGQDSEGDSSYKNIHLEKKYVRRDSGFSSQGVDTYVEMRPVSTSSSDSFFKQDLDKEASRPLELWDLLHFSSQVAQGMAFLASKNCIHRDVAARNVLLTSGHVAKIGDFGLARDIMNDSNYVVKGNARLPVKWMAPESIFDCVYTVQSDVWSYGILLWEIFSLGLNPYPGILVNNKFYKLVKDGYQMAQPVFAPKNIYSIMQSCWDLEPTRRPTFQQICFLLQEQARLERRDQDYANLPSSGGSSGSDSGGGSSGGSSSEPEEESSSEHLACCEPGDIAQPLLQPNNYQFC

EMT6 = test: Antitumor activity against mouse EMT6 cells allografted in BALB/c mouse assessed as reduction in tumor growth inhibition administered via oral gavage relative to control; type: functional
[11] = target: T4, Macrophage colony-stimulating factor 1 receptor (Homo sapiens, UniProt P07333); test: Binding affinity to CSF1R (unknown origin) assessed as dissociation constant
[12] = Inhibition of human CSF1R-autoinhibited by discoverX kinome scan assay
[13] = target: T4, Macrophage colony-stimulating factor 1 receptor; test: Inhibition of CSF1R (unknown origin) preincubated for 60 mins measured after 1 hr by ADP-Glo assay
[14] = Inhibition of FGFR (unknown origin); parameters: species or system Homo sapiens
[15] = target: Receptor-type tyrosine-protein kinase FLT3 (Homo sapiens, UniProt P36888); test: Binding affinity to human FLT3 assessed as dissociation constant
[16] = Solubility of compound in PBS at pH 7.4; type: physicochemical
[17] = Unbound fraction in mouse plasma; type: ADME, cell-free
[18] = Oral bioavailability in CD-1 mouse at 3 mg/kg; type: ADME, organism-based; details: in vivo
[19] = target: T3, Macrophage colony-stimulating factor 1 receptor; test: Inhibition of CSF1R autophosphorylation in mouse RAW264.7 cells measured after 4 hrs by Western blot analysis; type: cell-based
ID8 = test: Cytotoxicity against mouse ID8 cells; type: functional
[20] = target: Platelet-derived growth factor receptor beta (Homo sapiens, UniProt P09619); test: Inhibition of PDGFRbeta (unknown origin)
[21] = target: T2, Vascular endothelial growth factor receptor 2; test: Inhibition of human VEGFR2 in presence of ATP by mobility shift assay
[22] = Oral bioavailability in Sprague-Dawley rat at 10 mg/kg by LC-MS/MS analysis; type: ADME, organism-based; details: in vivo
[23] = Half life in Sprague-Dawley rat at 10 mg/kg, po or 1 mg/kg, iv by LC-MS/MS analysis; type: ADME, organism-based; details: in vivo
[24] = target: Tyrosine-protein kinase Lck (Homo sapiens, UniProt P06239); test: Inhibition of LCK (unknown origin)
[25] = target: T2, Vascular endothelial growth factor receptor 2; test: Inhibition of KDR (unknown origin) using peptide as substrate incubated for 90 mins in presence of ATP by HTRF method
[26] = target: RAF proto-oncogene serine/threonine-protein kinase (Homo sapiens, UniProt P04049); test: Inhibition of c-RAF (unknown origin)
MC-38 = test: Antitumor activity against mouse MC38 cells allografted in C57BL/6 mouse assessed as reduction in tumor volume at 5 to 10 mg/kg administered via oral gavage for 21 days relative to control; type: functional; parameters: scale not given: the % may be the effect or the level left; details: dose 5-10 mg/kg, time 21 day
[27] = target: T3, Macrophage colony-stimulating factor 1 receptor; test: Inhibition of CSF1R in mouse BMDM cells; type: cell-based
[28] = target: Receptor-type tyrosine-protein kinase FLT3 (Homo sapiens, UniProt P36888, ITD); test: Inhibition of FLT3-ITD mutant phosphorylation in human HEK-293T cells incubated for 2 hrs; type: cell-based
[29] = target: Mast/stem cell growth factor receptor Kit (Homo sapiens, UniProt P10721); test: Inhibition of c-KIT (unknown origin) using TK as substrate incubated for 50 mins in presence of ATP by HTRF method
NFS-60 [30] = test: Growth inhibition of mouse NFS-60 cells; type: functional

T4 sequence (P07333 whole entry): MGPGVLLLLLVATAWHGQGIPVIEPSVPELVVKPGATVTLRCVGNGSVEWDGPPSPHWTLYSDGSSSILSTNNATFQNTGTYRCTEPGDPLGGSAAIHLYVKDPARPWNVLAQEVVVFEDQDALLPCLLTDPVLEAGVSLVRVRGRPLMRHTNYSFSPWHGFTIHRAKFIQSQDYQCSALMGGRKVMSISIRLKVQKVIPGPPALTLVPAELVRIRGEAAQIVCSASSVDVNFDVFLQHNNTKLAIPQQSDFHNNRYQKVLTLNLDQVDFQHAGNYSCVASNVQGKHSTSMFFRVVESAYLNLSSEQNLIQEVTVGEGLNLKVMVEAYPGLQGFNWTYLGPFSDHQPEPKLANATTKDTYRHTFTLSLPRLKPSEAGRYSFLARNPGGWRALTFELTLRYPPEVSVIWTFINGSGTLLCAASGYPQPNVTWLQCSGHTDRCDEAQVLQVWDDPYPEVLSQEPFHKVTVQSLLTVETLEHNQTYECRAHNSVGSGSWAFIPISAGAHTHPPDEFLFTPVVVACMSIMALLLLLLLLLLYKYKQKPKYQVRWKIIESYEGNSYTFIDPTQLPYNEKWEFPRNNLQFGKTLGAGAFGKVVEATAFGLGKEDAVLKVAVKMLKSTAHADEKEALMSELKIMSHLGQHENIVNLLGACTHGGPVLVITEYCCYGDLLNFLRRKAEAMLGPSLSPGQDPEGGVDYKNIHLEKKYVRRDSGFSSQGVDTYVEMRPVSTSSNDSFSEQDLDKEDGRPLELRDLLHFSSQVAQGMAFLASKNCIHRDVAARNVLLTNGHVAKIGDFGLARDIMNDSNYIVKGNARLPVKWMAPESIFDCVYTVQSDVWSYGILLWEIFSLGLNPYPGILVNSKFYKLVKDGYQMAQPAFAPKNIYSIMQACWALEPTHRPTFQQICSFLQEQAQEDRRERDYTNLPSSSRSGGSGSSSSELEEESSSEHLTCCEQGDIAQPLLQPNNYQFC
T2 sequence (P35968 whole entry): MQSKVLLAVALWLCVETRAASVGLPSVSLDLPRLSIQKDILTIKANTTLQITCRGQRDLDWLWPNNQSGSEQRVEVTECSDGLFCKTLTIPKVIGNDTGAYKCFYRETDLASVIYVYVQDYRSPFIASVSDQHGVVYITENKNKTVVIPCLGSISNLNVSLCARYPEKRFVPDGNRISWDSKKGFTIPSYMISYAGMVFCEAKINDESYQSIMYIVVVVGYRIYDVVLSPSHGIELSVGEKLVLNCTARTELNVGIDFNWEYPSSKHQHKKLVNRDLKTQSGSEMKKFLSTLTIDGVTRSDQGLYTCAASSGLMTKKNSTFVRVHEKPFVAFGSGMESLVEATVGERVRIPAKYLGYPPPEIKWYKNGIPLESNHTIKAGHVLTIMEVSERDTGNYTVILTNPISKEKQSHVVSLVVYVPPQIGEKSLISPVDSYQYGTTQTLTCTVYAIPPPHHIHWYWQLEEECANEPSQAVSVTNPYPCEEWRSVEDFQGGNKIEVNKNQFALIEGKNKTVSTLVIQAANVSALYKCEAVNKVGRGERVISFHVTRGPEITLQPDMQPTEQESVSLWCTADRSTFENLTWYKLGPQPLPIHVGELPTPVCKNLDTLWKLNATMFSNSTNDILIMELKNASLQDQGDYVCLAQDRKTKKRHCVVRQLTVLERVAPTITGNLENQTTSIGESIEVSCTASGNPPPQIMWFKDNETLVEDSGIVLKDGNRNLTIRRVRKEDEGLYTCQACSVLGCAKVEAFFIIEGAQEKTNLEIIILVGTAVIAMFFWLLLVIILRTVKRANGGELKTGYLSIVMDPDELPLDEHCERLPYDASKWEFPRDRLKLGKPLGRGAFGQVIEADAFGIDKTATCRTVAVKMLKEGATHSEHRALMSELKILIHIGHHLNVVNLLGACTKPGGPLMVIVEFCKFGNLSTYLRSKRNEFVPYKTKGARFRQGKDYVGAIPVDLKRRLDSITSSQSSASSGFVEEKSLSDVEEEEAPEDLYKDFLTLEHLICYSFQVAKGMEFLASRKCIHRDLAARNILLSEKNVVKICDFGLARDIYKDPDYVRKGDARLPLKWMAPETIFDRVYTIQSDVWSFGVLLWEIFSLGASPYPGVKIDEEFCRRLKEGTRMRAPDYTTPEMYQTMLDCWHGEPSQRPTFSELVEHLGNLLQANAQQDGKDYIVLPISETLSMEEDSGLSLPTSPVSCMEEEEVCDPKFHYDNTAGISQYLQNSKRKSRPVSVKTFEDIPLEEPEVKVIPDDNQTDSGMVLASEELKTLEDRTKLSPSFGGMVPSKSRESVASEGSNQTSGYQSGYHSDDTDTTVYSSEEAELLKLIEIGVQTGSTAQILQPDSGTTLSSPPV
Tyrosine-protein kinase Lck, sequence (P06239 whole entry): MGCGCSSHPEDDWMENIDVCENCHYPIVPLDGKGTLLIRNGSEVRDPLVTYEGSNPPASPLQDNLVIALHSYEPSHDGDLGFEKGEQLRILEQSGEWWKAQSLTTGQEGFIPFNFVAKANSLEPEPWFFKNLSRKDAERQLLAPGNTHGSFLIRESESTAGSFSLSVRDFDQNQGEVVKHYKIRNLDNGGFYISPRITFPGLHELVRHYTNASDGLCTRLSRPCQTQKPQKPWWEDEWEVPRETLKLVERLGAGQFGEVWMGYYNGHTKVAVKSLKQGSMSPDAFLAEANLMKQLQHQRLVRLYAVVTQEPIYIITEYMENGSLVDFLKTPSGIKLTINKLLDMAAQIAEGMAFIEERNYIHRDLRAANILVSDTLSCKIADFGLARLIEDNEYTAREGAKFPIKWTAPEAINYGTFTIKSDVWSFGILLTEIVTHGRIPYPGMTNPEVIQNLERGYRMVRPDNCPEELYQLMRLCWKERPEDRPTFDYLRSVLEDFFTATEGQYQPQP
Vascular endothelial growth factor receptor 1, sequence (P17948 whole entry): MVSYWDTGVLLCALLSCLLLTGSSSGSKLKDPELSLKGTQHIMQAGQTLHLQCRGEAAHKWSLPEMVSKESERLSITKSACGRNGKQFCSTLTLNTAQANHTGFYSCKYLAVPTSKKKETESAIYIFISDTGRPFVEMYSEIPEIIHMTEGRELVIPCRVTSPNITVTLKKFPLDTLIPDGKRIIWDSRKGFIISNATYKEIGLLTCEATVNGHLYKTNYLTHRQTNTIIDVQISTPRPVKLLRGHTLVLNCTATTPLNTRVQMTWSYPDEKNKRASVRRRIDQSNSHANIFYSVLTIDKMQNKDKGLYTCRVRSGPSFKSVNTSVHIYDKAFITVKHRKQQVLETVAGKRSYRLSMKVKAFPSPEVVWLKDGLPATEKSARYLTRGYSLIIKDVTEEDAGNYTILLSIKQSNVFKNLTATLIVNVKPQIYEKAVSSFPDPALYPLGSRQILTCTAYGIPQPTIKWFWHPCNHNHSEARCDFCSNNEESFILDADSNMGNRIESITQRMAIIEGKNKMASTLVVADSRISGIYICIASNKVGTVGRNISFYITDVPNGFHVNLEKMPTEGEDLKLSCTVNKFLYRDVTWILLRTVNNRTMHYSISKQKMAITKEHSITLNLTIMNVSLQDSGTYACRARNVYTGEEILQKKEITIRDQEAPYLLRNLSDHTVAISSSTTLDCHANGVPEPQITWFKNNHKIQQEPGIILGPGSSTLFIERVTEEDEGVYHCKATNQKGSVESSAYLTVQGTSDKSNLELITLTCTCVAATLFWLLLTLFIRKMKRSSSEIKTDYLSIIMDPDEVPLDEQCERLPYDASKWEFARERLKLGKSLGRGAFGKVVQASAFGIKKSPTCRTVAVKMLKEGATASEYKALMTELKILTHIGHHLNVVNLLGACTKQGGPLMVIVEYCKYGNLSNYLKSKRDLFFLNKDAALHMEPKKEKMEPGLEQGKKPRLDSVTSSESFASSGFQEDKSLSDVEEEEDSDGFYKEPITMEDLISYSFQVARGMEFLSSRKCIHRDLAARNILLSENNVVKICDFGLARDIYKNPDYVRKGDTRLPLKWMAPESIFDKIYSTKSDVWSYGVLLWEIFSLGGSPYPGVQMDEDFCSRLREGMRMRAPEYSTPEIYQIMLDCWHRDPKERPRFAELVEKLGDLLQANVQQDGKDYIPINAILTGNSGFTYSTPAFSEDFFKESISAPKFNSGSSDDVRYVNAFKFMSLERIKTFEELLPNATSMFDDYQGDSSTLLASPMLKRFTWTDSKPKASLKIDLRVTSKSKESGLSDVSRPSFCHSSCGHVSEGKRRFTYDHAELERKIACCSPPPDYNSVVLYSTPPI
RAF proto-oncogene serine/threonine-protein kinase, sequence (P04049 whole entry): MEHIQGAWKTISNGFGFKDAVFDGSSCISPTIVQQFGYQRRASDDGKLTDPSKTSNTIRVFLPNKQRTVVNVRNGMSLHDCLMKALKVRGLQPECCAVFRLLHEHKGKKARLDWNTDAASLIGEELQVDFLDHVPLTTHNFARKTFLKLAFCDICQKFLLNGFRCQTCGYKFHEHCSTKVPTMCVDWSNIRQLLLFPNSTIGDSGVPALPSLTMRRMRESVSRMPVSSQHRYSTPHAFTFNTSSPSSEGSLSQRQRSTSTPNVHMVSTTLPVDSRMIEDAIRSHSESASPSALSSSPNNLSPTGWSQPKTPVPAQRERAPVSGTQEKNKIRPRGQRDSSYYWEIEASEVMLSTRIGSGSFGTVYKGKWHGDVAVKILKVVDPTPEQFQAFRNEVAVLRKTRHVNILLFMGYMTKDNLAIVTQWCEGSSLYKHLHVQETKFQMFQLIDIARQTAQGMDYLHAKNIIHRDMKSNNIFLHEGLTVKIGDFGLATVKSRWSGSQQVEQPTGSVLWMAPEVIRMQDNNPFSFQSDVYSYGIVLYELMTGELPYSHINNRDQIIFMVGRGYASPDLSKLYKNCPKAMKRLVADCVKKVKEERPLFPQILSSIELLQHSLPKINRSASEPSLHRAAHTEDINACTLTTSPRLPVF

## CNC(=O)c1cc(Oc2ccc3nc(N[C@@H]4CCCC[C@H]4O)sc3c2)ccn1 [SOTULETINIB]
CT26
  IC50: 0.001 µM

## Cc1ccc(F)c(NC(=O)Nc2ccc(-c3cccc4[nH]nc(N)c34)cc2)c1 [LINIFANIB]
[1]
  IC50 at 48 h: 8.6 µM
NFS-60 [2]
  IC50: 0.03 µM
NFS-60 [3]
  GI50: 4.4 µM

## COc1ccc(N(C(=O)Nc2c(C)cccc2C)c2cc(Nc3ccc(N4CCN(C)CC4)cc3)ncn2)c(OC)c1
[4]
  half-life: > 2 h

## Cc1cc2cc(Oc3ccnc(Nc4cccc(CS(=O)(=O)NCCN(C)C)c4)n3)ccc2[nH]1 [SURUFATINIB]
HUVEC [5]
  IC50: < 0.05 µM
[6]
  IC50: 0.004 µM
[7]
  IC50: 0.001 µM
HUVEC [8]
  IC50: < 0.05 µM
[9]
  IC50: 0.001 µM
[10]
  IC50: 0.079 µM

## CCn1cc(OCC(F)(F)F)c(C(=O)Nc2ccc(Oc3ccnc4cc(OC)c(OC)cc34)cn2)n1
EMT6
  TGI: >50%
[11]
  Kd: < 0.1 µM

## Cn1cc(-c2cc(Cc3ccc(NC(=O)NC(=O)C(C)(C)C)nc3)ccn2)cn1
[12]
  IC50: 0.0234 µM
[13]
  IC50: 0.0234 µM

## COc1cc(OC)c(Cl)c(-c2ccc3c(NC(=O)c4ccc(N5CCNC(C)(C)C5)cc4)n[nH]c3n2)c1Cl
[14]
  IC50: 0.0173 µM

## CN1CCN(c2ccc(C(=O)Nc3n[nH]c4cc(OCCOCc5ccc(C(F)(F)F)cc5)ccc34)cc2)CC1
[11]
  Kd: < 0.001 µM
[15]
  Kd: < 0.001 µM

## COc1ccc(N2C(=O)N(c3c(C)cccc3Cl)Cc3cnc(Nc4ccc(C5CCN(C)CC5)cc4OC)nc32)nc1
[16]
  solubility: 428 µM (≈ 257 µg/mL)
[17]
  fraction unbound: 0.06

## Cn1cc(-c2cc(Oc3ccc(NC(=O)N4CCC5(CCC5)C4=O)nc3)ccn2)cn1
[18]
  bioavailability: 100%

## COc1ncc(F)cc1CNc1ccc(Cc2c[nH]c3ncc(C)cc23)c(F)n1 [PLX-5622]
[19]
  IC50: 0.026 µM

## Cc1cccc(Cn2nc(C3CC3)c3c(NC(=O)c4cnc5cc(OCCN6CCN(C)CC6)ccn45)cccc32)n1 [ARRY-382]
ID8
  ED50: 3 mg/kg

## CNC(=O)c1cccc2cc(Oc3ccnc(NC(=O)c4ccc(N5C[C@@H](C)N[C@@H](C)C5)cc4)c3)ccc12
[20]
  IC50: < 0.01 µM
[21]
  IC50: < 0.01 µM

## CNc1ccc(-c2cnc(Nc3cnc(C4CC4)nc3)cc2C)c2c1C(=O)NC2
[22]
  bioavailability: 106%
[23]
  half-life: 2.53 h

## O=C(Nc1ccc(OC(F)(F)F)cc1)c1sccc1NCc1ccnc2ccccc12 [OSI-930]
[24]
  IC50: 0.015 µM
[25]
  IC50: 0.015 µM
[26]
  IC50: 0.015 µM

## Cc1nc(-c2cnc(NC(C)C)n(C)c2=O)ccc1Oc1ccnc(-c2cnn(C)c2)c1 [VIMSELTINIB]
MC-38
  Activity: 67%

## CCN(CC)CCNC(=O)c1c(C)[nH]c(/C=C2\C(=O)Nc3ccc(F)cc32)c1C [SUNITINIB]
[27]
  IC50: 0.0041 µM

## Cc1cc(NC(=O)c2cccc3cc(-c4cccc5[nH]nc(N)c45)ccc23)ccc1F
[27]
  IC50: 0.093 µM

## CC1(C)CC=C(c2nc(C3CC(C)(C)OC(C)(C)C3)ccc2NC(=O)c2nc(C#N)c[nH]2)CC1 [EDICOTINIB]
[28]
  IC50: 0.19 µM
[29]
  IC50: 0.02 µM

## Cc1cccc(Cn2nc(C)c3c(NC(=O)c4csc5c(N)ncnc45)cccc32)n1
NFS-60 [30]
  GI50: 0.08 µM

## Cn1cc(-c2cc(Oc3ccc(NC(=O)N4CCC5(CCC(F)(F)CC5)C4=O)nc3)ccn2)cn1
[18]
  bioavailability: 100%
